From ChEMBL document CHEMBL1201862, “PubChem BioAssay data set” (2004) come the findings set out here.

Molecules are shown by their SMILES.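 96-well plates; 48 h exposure; 5 concentrations. Endpoints by linear interpolation between flanking doses. Not reached: highest tested concentration assigned. GI50 is the concentration that inhibits growth by half.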 Active and inactive are the calls of the source. Rule as the data show it: active = GI50 up to about 1.1 µM and inactive = higher.

Holding throughout (assay): NCI anticancer screen, dose series, 48 h
Assay [1] has as its system HOP-18.
The subject of assay [2] is DMS-273.
The subject of assay [3] is LXFL 529.
Assay [4] relates to DMS-114.
The test system of assay [5] is SNB-78.
Assay [6] relates to KM-20L2.
The subject of assay [7] is M19-MEL.
In assay [8] the test system is RXF 631.
The test system of assay [9] is XF498.

On to `O=C1O/C(=C(\Br)c2cccc3ccccc23)c2ccccc21`, for which the GI50 is 19.5 µM (inactive) in assay [1]; 24.5 µM (inactive) in assay [2]; > 47.1 µM (inactive) in assay [3]; > 33.3 µM (inactive) in assay [4]; 30.8 µM (inactive) in [5]; 25.1 µM (inactive) in assay [6]. The GI50 in assay [7] is 36.1 µM (inactive).

On to `COc1ccc(OC)c(NC(=O)CCC/C(CC(=O)c2ccc(O)c(OC)c2)=N\Nc2ccc([N+](=O)[O-])cc2)c1`, for which the GI50 in assay [1] was > 100 µM (inactive); in assay [8] it was 96.4 µM (inactive); in assay [2], 57.3 µM (inactive); in assay [3], 32.7 µM (inactive); in [4], > 100 µM (inactive); in assay [5], 43.6 µM (inactive). Besides, the GI50 in assay [6] is > 100 µM (inactive); in [9], 41.1 µM (inactive); in assay [7] it was > 100 µM (inactive).

As to `COC(C)(C)[C@H](O)C(O)CC(C)[C@@H]1CCC23CC12CCC1[C@@]2(C)CCC(OC(C)=O)C(C)(C)C2CC(OC2OC(COC(C)=O)C(O)C(O)C2O)[C@]13C` (stereo not given in full), the GI50 was 11 µM (inactive) in assay [1]; 4.86 µM (inactive) in assay [8]; 2.97 µM (inactive) in assay [2]; 4.89 µM (inactive) in [3]; 2.61 µM (inactive) in [4]; 8.07 µM (inactive) in assay [5]. In addition, the results for the GI50 in assay [6] and in assay [7] were 1.1 µM (active) and 3.01 µM (inactive), respectively.

Take `CC(C)(C)C1CC[C@H]2c3c([nH]c4ccc(Br)cc34)[C@H]3C(=O)N(c4ccccc4)C(=O)[C@H]3[C@H]2C1` (stereo not given in full): the GI50 in assay [1] is 33 µM (inactive); in assay [8], 4.13 µM (inactive); in [2] it was 6.27 µM (inactive); in [3], 14.3 µM (inactive); in assay [4], 18.2 µM (inactive); in assay [5] it was 10 µM (inactive). The GI50 in assay [6] is 45.9 µM (inactive); in assay [9], 16.9 µM (inactive); in [7], 19.8 µM (inactive).

As for `O=C1CCCC/C(=C/c2ccccc2)N1`, the GI50 in assay [1] was > 100 µM (inactive); in assay [2] it was > 100 µM (inactive); in [3] it was > 100 µM (inactive); in assay [4], 50.4 µM (inactive); in [5], > 100 µM (inactive); in [6], > 100 µM (inactive). Besides, the GI50 in assay [9] and in assay [7] was > 100 µM (inactive) throughout.

In the case of `CC(=O)O[C@H]1CC[C@@]2(C)C(=CC[C@@H]3C2CC[C@]2(C)Nc4[nH]ncc4CC32)C1` (stereo not given in full), the GI50 in assay [8] is 16.7 µM (inactive); in assay [2] it was 16.9 µM (inactive); in assay [3], 19.9 µM (inactive); in [4], 16.5 µM (inactive); in assay [5] it was 42.7 µM (inactive); in assay [6], 27.9 µM (inactive). The GI50 in assay [9] is 4.1 µM (inactive); in assay [7] it was 24.7 µM (inactive).

As to `CCN(CC)CCn1ccc(=O)c2cc3c(=O)ccn(CCN(CC)CC)c3c(C)c21`, the GI50 in assay [1] was 6.82 µM (inactive); in assay [8], 5.74 µM (inactive); in assay [2], 3.58 µM (inactive); in assay [3] it was 4.41 µM (inactive); in [4], 13.8 µM (inactive); in [5] it was 11.4 µM (inactive). The GI50 was 3.61 µM (inactive) in assay [6], 8.95 µM (inactive) in assay [9] and 12.6 µM (inactive) in [7].

Turning to `CC(=O)NC(CCCCNC(=O)NCCCl)C(=O)NCc1ccccc1` (stereo not given), the GI50 in assay [1], in assay [8], in assay [2], in assay [3], in [4] and in [6] was > 100 µM (inactive) in each case. The GI50 in [9] and in assay [7] was > 100 µM (inactive) each time.

With `CCO/C=C/C(C)C1(C(=O)OCC)CCCCC1=O` (stereo not given), the GI50 was > 100 µM (inactive) in assay [1]; > 100 µM (inactive) in assay [8]; 21.4 µM (inactive) in assay [2]; > 100 µM (inactive) in assay [3]; 86.9 µM (inactive) in assay [4]; > 100 µM (inactive) in [5]. The GI50 in assay [6], in [9] and in assay [7] was > 100 µM (inactive) throughout.

Turning to `O=C(C(=O)N1CC2C=CC1CC2)c1c[nH]c2ccccc12` (stereo not given), the GI50 in [1], in assay [8], in assay [2], in assay [3], in assay [4] and in [5] was > 100 µM (inactive) in each case. Further, the GI50 in assay [6] and in assay [7] was > 100 µM (inactive) throughout.

For the compound `CCOP(=O)(C/C(O)=C1\C(=O)C(CCCNC(=O)OC(C)(C)C)N(Cc2ccc(OC)c(OC)c2)C1=O)OCC` (stereo not given), the GI50 in assay [1], in assay [8], in assay [2], in [3], in assay [4] and in [6] was > 100 µM (inactive) throughout. For the same compound, in [7], the GI50 is > 100 µM (inactive).

Take `Nc1ncnc2c1sc(=S)n2-c1ccccc1`: the GI50 in assay [1], in assay [2], in assay [3], in assay [4], in assay [5] and in [6] was > 100 µM (inactive) in each case. Also, the GI50 in [9] and in assay [7] was > 100 µM (inactive) throughout.

With `CCC(C)Cn1c(C)nc2c1C(=O)c1ccccc1C2=O` (stereo not given), the GI50 in assay [2] was 9.86 µM (inactive); in assay [3] it was 17 µM (inactive); in assay [5], 34.4 µM (inactive); in assay [6], 31.2 µM (inactive); in [9], 22.5 µM (inactive); in [7] it was 18.1 µM (inactive).

For `Oc1ccc2c3c1OC1C(=NN=C4CCC5(O)C6Cc7ccc(O)c8c7C5(CCN6CC5CC5)C4O8)CCC4(O)C(C2)N(CC2CC2)CCC314` (stereo not given), the GI50 in assay [1] was > 100 µM (inactive); in [2], 24.9 µM (inactive); in [3] it was 20.8 µM (inactive); in assay [4], 21.6 µM (inactive); in [5], 62.5 µM (inactive); in [6], 20.2 µM (inactive). For the same compound, the values for the GI50 in [9] and in [7] were 19 µM (inactive) and 21.7 µM (inactive), respectively.

`O=C1/C(=C/c2ccccc2)CN(C(=O)CCN2CCOCC2)C/C1=C\c1ccccc1`: the GI50 is 16.7 µM (inactive) in assay [1]; 7.8 µM (inactive) in assay [8]; 1.87 µM (inactive) in [2]; 2.52 µM (inactive) in assay [3]; 2.88 µM (inactive) in [4]; 6.4 µM (inactive) in assay [5]. Moreover, the values for the GI50 in assay [6] and in assay [7] were 1.92 µM (inactive) and 2 µM (inactive), respectively.

Take `COc1ccc(-c2cc(=O)c3ccccc3[nH]2)c(OC)c1`: the GI50 in assay [2], in assay [3], in [4], in assay [5], in [6] and in [7] was > 100 µM (inactive) throughout.

Turning to `Cc1ccc2nc(NC(=O)C(=O)C(C(=O)c3ccc4ccccc4c3)C3OC(=O)c4ccccc43)sc2c1` (stereo not given), the GI50 in [3] was 4.35 µM (inactive); in [4] it was 8.22 µM (inactive); in [5] it was 4.36 µM (inactive); in assay [7], 14.5 µM (inactive).
